Reference: PMC12400508 (RSC Advances, 2025)
≈ marks a conversion by molar mass, not a printed value.

Assays:
Format in all cases: cell-based, Mycobacterium tuberculosis
mc^26230_R1 = system: mc^26230_R1
mc^26230_R3 = system: mc^26230_R3
[1] = system: mc^26230 overexpressing InhA (pMV261_inhA); test: microbe, parasite or virus in culture; details: for fold change between the strain harboring the empty plasmid pMV261 and the strain overexpressing InhA: MIC pMV261_inhA / MIC pMV261; for MIC: Mycobacterium tuberculosis, read-out: MIC, pMV261_inhA

| SMILES | MIC, mc^26230_R1 (mc^26230_R1) | fold increase of MIC in the KatG mutated strains versus parental strain (mc^26230_R1) | MIC, mc^26230_R3 (mc^26230_R3) | fold change between the strain harboring the empty plasmid pMV261 and the strain overexpressing InhA [1] | MIC [1] | MIC, pMV261_inhA [1] |
| --- | --- | --- | --- | --- | --- | --- |
| O=C1N=C(NNC(=O)c2ccncc2)S/C1=C\c1ccccc1Cl [9p] | 100 µg/mL (≈ 279 µM) | 4 fold | 100 µg/mL (≈ 279 µM) |  |  |  |
| Cc1ccccc1/C=C1\SC(NNC(=O)c2ccncc2)=NC1=O [9d] | 50 µg/mL (≈ 148 µM) | 32 fold | 50 µg/mL (≈ 148 µM) | 16 fold | 50 µg/mL (≈ 148 µM) |  |
| CO[C@H]1/C=C/O[C@@]2(C)Oc3c(C)c(O)c4c(O)c(c(/C=N/N5CCN(C)CC5)c(O)c4c3C2=O)NC(=O)/C(C)=C\C=C\[C@H](C)[C@H](O)[C@@H](C)[C@@H](O)[C@@H](C)[C@H](OC(C)=O)[C@@H]1C [RIF, reference compound] |  |  |  | 1 fold | 0.039 µg/mL (≈ 0.0474 µM) | unaffected |
| O=C1N=C(NNC(=O)c2ccncc2)S/C1=C\c1ccc(F)cc1 [9j] | 100 µg/mL (≈ 292 µM) | 8 fold | 100 µg/mL (≈ 292 µM) | 8 fold | 100 µg/mL (≈ 292 µM) |  |
| NNC(=O)c1ccncc1 [INH, isoniazid, reference compound] | >10 µg/mL |  | >10 µg/mL | 16 fold | 1.25 µg/mL (≈ 9.11 µM) |  |
| O=C1N=C(NNC(=O)c2ccncc2)S/C1=C\c1ccc(Cl)cc1 [9n] | 100 µg/mL (≈ 279 µM) | 8 fold | 100 µg/mL (≈ 279 µM) | 4 fold | 100 µg/mL (≈ 279 µM) |  |
| O=C1N=C(NNC(=O)c2ccncc2)S/C1=C\c1ccccc1F [9l] | 100 µg/mL (≈ 292 µM) | 4 fold | 100 µg/mL (≈ 292 µM) |  |  |  |
